This is an account of results in article PMC4031276 (Molecular pharmaceutics, 2013).

As usually defined, the Ki is the dissociation constant of the complex between target and ligand, obtained from inhibition or displacement.

Data set [1] concerns hASBT-MDCK monolayer. The following applies: passive permeability of native glycine conjugates, for comparison; cited from earlier work.
The target of data set [2] is T1, hASBT (Homo sapiens, UniProt Q12908).
T1 sequence (Q12908 1-348): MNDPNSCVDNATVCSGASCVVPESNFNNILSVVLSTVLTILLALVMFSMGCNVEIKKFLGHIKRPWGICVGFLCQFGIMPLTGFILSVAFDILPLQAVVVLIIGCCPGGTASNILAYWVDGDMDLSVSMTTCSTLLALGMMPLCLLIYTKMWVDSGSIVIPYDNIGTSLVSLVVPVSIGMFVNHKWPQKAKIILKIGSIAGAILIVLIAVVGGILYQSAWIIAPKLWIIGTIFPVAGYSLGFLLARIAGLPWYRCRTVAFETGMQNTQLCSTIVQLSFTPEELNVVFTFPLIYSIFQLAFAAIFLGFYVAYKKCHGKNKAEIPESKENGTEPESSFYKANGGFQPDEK
The following applies: native glycine conjugates, for comparison; cited from earlier work.

The target in data set [3] is T1, hASBT. To be noted: read-out: Ki (μM ±SEM); glycine conjugates of native bile acids, provided for comparison; cited from earlier work.
Data set [4] deals with T1, hASBT. Kind of data set: hASBT-mediated active uptake into hASBT-MDCK monolayers. The format is cell-based. The following applies: for Kt fold higher than Ki: Kt vs Ki; for Kt (μM ±SEM): Michaelis-Menten transport constant, gly-iBA 1–200 μM, 10 min, 37 °C; for fold lower Jmax than corresponding native BA: TCA-normalized Jmax; for Relative Jmax (% TCA Jmax ±SEM): gly-iBAs, normalised to TCA Jmax.

In data set [5] the target is T1, hASBT. Kind of data set: cis-inhibition of taurocholate. The following applies: for fold weaker inhibitory potency (Ki) than corresponding native BA: 3-hydroxyl epimerization (α to β).
In data set [6] the test system is hASBT-MDCK monolayer. The following applies: for Pp (cm/s ± SEM x 10^6): passive permeability of gly-iBAs, sodium-free buffer.
[7] abbreviates: read-out: Ki (μM ±SEM), glycine conjugates of iso-bile acids, TCA 2.5 μM, 10 min, 37 °C, pH 6.8, mean (SEM).
Setting [8] is: maximum substrate flux, mean ± SEM.

Read-outs that look alike come from different tables or passages of the source. Marks after values point to notes of the source that are not given here.

In the case of `C[C@H](CCC(=O)NCC(=O)O)[C@H]1CC[C@H]2[C@@H]3[C@H](O)C[C@@H]4C[C@H](O)CC[C@]4(C)[C@H]3C[C@H](O)[C@]12C` [Gly-CA], the “Pp (cm/s ± SEM x 10^6)” value in the data set with hASBT-MDCK monolayer [1] is on record as 0.220 (0.157) cm/s x 10^6. The “Relative Jmax (% TCA Jmax ±SEM)” value on hASBT [2] is 152 (24) % TCA Jmax. For the same compound, the inhibition constant Ki at hASBT [3] was 7.53 µM.
In the case of `C[C@H](CCC(=O)NCC(=O)O)[C@H]1CC[C@H]2[C@@H]3[C@H](O)C[C@@H]4C[C@H](O)CC[C@]4(C)[C@H]3CC[C@]12C` [Gly-CDCA], the “Pp (cm/s ± SEM x 10^6)” value in the data set on hASBT-MDCK monolayer [1] was 0.414 (0.201) cm/s x 10^6. Further, the “Relative Jmax (% TCA Jmax ±SEM)” value at hASBT [2] is 432 (58) % TCA Jmax. Moreover, the Ki at hASBT [3] is 0.992 µM.
Take `C[C@H](CCC(=O)NCC(=O)O)[C@H]1CC[C@H]2[C@@H]3CC[C@@H]4C[C@H](O)CC[C@]4(C)[C@H]3C[C@H](O)[C@]12C` [Gly-DCA]: the “Pp (cm/s ± SEM x 10^6)” value in the data set with hASBT-MDCK monolayer [1] was 0.520 (0.162) cm/s x 10^6. Moreover, the “Relative Jmax (% TCA Jmax ±SEM)” value on hASBT [2] is given as 349 (47) % TCA Jmax. Besides, at hASBT [3], the Ki is 3.22 µM.
Consider `C[C@H](CCC(=O)NCC(=O)O)[C@H]1CC[C@H]2[C@@H]3CC[C@@H]4C[C@H](O)CC[C@]4(C)[C@H]3CC[C@]12C` [Gly-LCA], for which the “Pp (cm/s ± SEM x 10^6)” value in the data set on hASBT-MDCK monolayer [1] was 0.865 (0.780) cm/s x 10^6. The “Relative Jmax (% TCA Jmax ±SEM)” value at hASBT [2] is 405 (64) % TCA Jmax. The inhibition constant (Ki) at hASBT [3] is 0.427 µM.
`C[C@H](CCC(=O)NCC(=O)O)[C@H]1CC[C@H]2[C@@H]3[C@@H](O)C[C@@H]4C[C@H](O)CC[C@]4(C)[C@H]3CC[C@]12C` [Gly-UDCA]: the “Pp (cm/s ± SEM x 10^6)” value with hASBT-MDCK monolayer [1] is listed as 1.01 (0.13) cm/s x 10^6. Moreover, on hASBT [2], the “Relative Jmax (% TCA Jmax ±SEM)” value is listed as 226 (36) % TCA Jmax. Besides, at hASBT [3], the Ki is 3.41 µM.
`C[C@H](CCC(=O)NCCS(=O)(=O)O)[C@H]1CC[C@H]2[C@@H]3[C@H](O)C[C@@H]4C[C@H](O)CC[C@]4(C)[C@H]3C[C@H](O)[C@]12C` [TCA, Taurocholic acid, reference compound]: the “Absolute Jmax” value on hASBT [4] is “c Absolute Jmax (pmol/cm^2/s) for each gly-iBA were 0.017 ± 0.006 (gly-iLCA), 0.065 ± 0.004 (gly-iCDCA), 0.010 ± 0.003 (gly-iDCA), 0.038 ± 0.006 (gly-iUDCA), and 0.166 ± 0.024 (gly-iCA) respectively. TCA Pp and Jmax were 1.56 x 10^−6 cm/s and 0.271 ± 0.020 pmol/cm^2/s, respectively”.
On to `C[C@H](CCC(=O)NCC(=O)O)[C@H]1CC[C@H]2[C@@H]3[C@H](O)C[C@@H]4C[C@@H](O)CC[C@]4(C)[C@H]3C[C@H](O)[C@]12C` [gly-iCA, 3β,7α, 12α-trihydroxy-5β-cholanic acid glycine amide], for which the Ki on hASBT [5] (setting [7]) worked out at 23.3 µM. Also, at hASBT [4], the “Kt fold higher than Ki” value is on record as “about 10 fold”, the “Kt (μM ±SEM)” value was 163 (37) μM, the “fold lower Jmax than corresponding native BA” value is 3 fold and the “Relative Jmax (% TCA Jmax ±SEM)” value was 61.2 (9.9) % TCA Jmax. Also, at hASBT [4] (setting [8]), the “Absolute Jmax” value is 0.166 ± 0.024 pmol/cm^2/s. Besides, the “Pp (cm/s ± SEM x 10^6)” value in the data set on hASBT-MDCK monolayer [6] is given as 0.740 (0.120) cm/s x 10^6.
On to `C[C@H](CCC(=O)NCC(=O)O)[C@H]1CC[C@H]2[C@@H]3[C@H](O)C[C@@H]4C[C@@H](O)CC[C@]4(C)[C@H]3CC[C@]12C` [gly-iCDCA, 3β, 7α-dihydroxy-5β-cholanic acid glycine amide], for which the Ki at hASBT [5] (setting [7]) worked out at 4.53 µM. Besides, at hASBT [4], the “Kt fold higher than Ki” value is recorded as “about 10 fold”, the “Kt (μM ±SEM)” value was found to be 59.5 ± 8.8 µM, the “fold lower Jmax than corresponding native BA” value amounted to 18 fold and the “Relative Jmax (% TCA Jmax ±SEM)” value is listed as 23.9 (2.3) % TCA Jmax. Further, the “Absolute Jmax” value at hASBT [4] (setting [8]) stood at 0.065 ± 0.004 pmol/cm^2/s. For the same compound, the “fold weaker transport affinity (Kt) than native counterpart” value on hASBT [4] (vs gly-CDCA) is given as 90 fold. In addition, the “Pp (cm/s ± SEM x 10^6)” value in the data set on hASBT-MDCK monolayer [6] is reported as 0.058 (0.07) cm/s x 10^6.
Regarding `C[C@H](CCC(=O)NCC(=O)O)[C@H]1CC[C@H]2[C@@H]3CC[C@@H]4C[C@@H](O)CC[C@]4(C)[C@H]3C[C@H](O)[C@]12C` [gly-iDCA, 3β, 12α-dihydroxy-5β-cholanic acid glycine amide], the Ki on hASBT [5] (setting [7]) came out at 12.4 µM. Moreover, at hASBT [4], the “Kt (μM ±SEM)” value is 149 (75) ^ns μM and the “Relative Jmax (% TCA Jmax ±SEM)” value is on record as 3.68 (1.14) ^e % TCA Jmax. Also, the “Absolute Jmax” value on hASBT [4] (setting [8]) came to 0.010 ± 0.003 pmol/cm^2/s. Besides, the “Pp (cm/s ± SEM x 10^6)” value with hASBT-MDCK monolayer [6] is 0.730 (0.020) cm/s x 10^6.
On to `C[C@H](CCC(=O)NCC(=O)O)[C@H]1CC[C@H]2[C@@H]3CC[C@@H]4C[C@@H](O)CC[C@]4(C)[C@H]3CC[C@]12C` [gly-iLCA, 3β-hydroxy-5β-cholanic acid glycine amide], for which the “fold weaker inhibitory potency (Ki) than corresponding native BA” value at hASBT [5] is listed as 12 fold. The Ki on hASBT [5] (setting [7]) came to 5.07 µM. At hASBT [4] (estimate, not determinable due to high passive permeability), the “Estimate for Kt” value is 6.82 (4.98) μM. Further, on hASBT [4] (setting [8]), the “Absolute Jmax” value is 0.017 ± 0.006 pmol/cm^2/s. The “Pp (cm/s ± SEM x 10^6)” value with hASBT-MDCK monolayer [6] is 16.6 (0.8) cm/s x 10^6. The “Pp fold that of native counterpart” value with hASBT-MDCK monolayer [6] (vs gly-LCA) is on record as 20 fold.
On to `C[C@H](CCC(=O)NCC(=O)O)[C@H]1CC[C@H]2[C@@H]3[C@@H](O)C[C@@H]4C[C@@H](O)CC[C@]4(C)[C@H]3CC[C@]12C` [gly-iUDCA, 3β,7β-dihydroxy-5β-cholanic acid glycine amide], for which, at hASBT [5] (setting [7]), the Ki was 7.66 µM. At hASBT [4], the “Kt fold higher than Ki” value is listed as “about 10 fold”, the “Kt (μM ±SEM)” value is 75.3 (22.1) μM, the “fold lower Jmax than corresponding native BA” value turned out to be 16 fold and the “Relative Jmax (% TCA Jmax ±SEM)” value is 14.0 (2.4) % TCA Jmax. For the same compound, the “Absolute Jmax” value on hASBT [4] (setting [8]) was 0.038 ± 0.006 pmol/cm^2/s. Also, the “Pp (cm/s ± SEM x 10^6)” value in the data set on hASBT-MDCK monolayer [6] is reported as 0.690 (0.090) cm/s x 10^6.
Consider `C[C@H](CCC(=O)O)[C@H]1CC[C@H]2[C@@H]3[C@H](O)C[C@@H]4C[C@@H](O)CC[C@]4(C)[C@H]3CC[C@]12C` [iCDCA, 3β, 7α-dihydroxy-5β-cholanic acid], for which, on hASBT [5], the affinity, expressed as Ki, was 11.8 µM and the “fold weaker inhibitory potency (Ki) than corresponding native BA” value is given as 6 fold. At hASBT [5] (7α-hydroxyl vs 7β-epimer), the “fold more potent (Ki) than iUDCA” value was 2 fold.
`C[C@H](CCC(=O)O)[C@H]1CC[C@H]2[C@@H]3CC[C@@H]4C[C@@H](O)CC[C@]4(C)[C@H]3C[C@H](O)[C@]12C` [iDCA, 3β, 12α-dihydroxy-5β-cholanic acid] registered a Ki on hASBT [5] of 11.4 µM.
The same measure, in the same setting: then `C[C@H](CCC(=O)O)[C@H]1CC[C@H]2[C@@H]3CC[C@@H]4C[C@@H](O)CC[C@]4(C)[C@H]3CC[C@]12C` [iLCA, 3β-hydroxy-5β-cholanic acid], with 5.36 µM; and `C[C@H](CCC(=O)O)[C@H]1CC[C@H]2[C@@H]3[C@@H](O)C[C@@H]4C[C@@H](O)CC[C@]4(C)[C@H]3CC[C@]12C` [iUDCA, 3β, 7β-dihydroxy-5β-cholanic acid], with 24.7 µM.
